Experimental data: article PMC3569073 (Journal of medicinal chemistry, 2013)
Several values for one entry are separate records, joined by “and”; a condition that tells them apart may be missing. Identical values can stand only once. Like-named read-outs stand apart in the source and are kept apart here.

Key:
[1] = biological target: T1, 3CLpro enzyme from the mouse coronavirus MHV (Murine coronavirus, UniProt P0C6X9); format: biochemical; settings: 100 μM
T1 sequence (P0C6X9 3334-3635 limits assumed): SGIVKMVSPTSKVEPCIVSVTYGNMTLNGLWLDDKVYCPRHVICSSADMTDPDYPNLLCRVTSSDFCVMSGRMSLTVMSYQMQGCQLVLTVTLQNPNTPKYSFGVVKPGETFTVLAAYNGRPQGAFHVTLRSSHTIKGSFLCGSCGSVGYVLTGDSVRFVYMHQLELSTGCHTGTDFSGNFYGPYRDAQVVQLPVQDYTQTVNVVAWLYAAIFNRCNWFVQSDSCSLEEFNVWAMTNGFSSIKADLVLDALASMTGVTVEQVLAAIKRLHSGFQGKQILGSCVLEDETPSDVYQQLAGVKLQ

[2] = tested on: SARS-CoV infected Vero cells; settings: cited from earlier work
[3] = biological target: T2, 3CLpro enzyme from the human coronavirus HKU1 (Human coronavirus HKU1, UniProt P0C6X2); format: biochemical; settings: 100 μM
T2 sequence (P0C6X2 3335-3637 limits assumed): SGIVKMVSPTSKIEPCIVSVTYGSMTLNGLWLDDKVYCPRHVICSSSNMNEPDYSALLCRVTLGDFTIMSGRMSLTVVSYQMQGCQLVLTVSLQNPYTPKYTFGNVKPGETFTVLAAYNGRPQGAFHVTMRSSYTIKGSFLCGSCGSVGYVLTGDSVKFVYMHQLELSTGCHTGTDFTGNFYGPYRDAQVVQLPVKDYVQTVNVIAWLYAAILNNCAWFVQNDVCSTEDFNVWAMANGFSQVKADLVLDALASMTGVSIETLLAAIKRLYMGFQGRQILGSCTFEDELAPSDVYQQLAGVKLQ

SARS-CoV 3CLpro = SARS-CoV 3CLpro (Severe acute respiratory syndrome coronavirus, UniProt P0C6X7); experiment: biochemical; format: biochemical; settings: for inhibition at 100 µM: read-out: 3CLpro inhibition level
SARS 3CLpro = settings: cited from earlier work
SARS-CoV = settings: cited from earlier work
[4] = tested on: 68 discrete GPCRs, ion channels and transporters; format: binding; settings: 10 μM

For CN(C)CCCSc1ccccc1NC(=O)/C=C/c1ccccc1 [cinanserin], the “inhibition of MHV 3CLpro” value [1] is listed as “no inhibition”, the “reduction of viral RNA in cell culture media” value [2] is listed as 3 log and the “inhibition of HKU1 3CLpro” value [3] is listed as “no inhibition”. The “inhibition of SARS-CoV 3CLpro” value (SARS-CoV 3CLpro; 100 μM) was “no inhibition” and the “inhibition of authentic SARS-CoV 3CLpro” value (SARS-CoV 3CLpro; 100 μM) was “no inhibition”.

For CC(C)(C)NC(=O)C(c1cccnc1)N(C(=O)c1ccc(Cl)o1)c1ccc(C(C)(C)C)cc1 (stereo not shown) [Compound 50], the “3CLpro inhibition, SAR result in words” value (SARS-CoV 3CLpro) was “nearly equipotent to 16”.

In the case of CC(C)(C)NC(=O)C(c1cccnc1)N(C(=O)c1ccc[nH]1)c1ccc(C(C)(C)C)cc1 (stereo not shown) [Compound 37], the “3CLpro inhibition, SAR result in words” value (SARS-CoV 3CLpro) is reported as “completely inactive”.

In the case of CC(C)(C)NC(=O)C(c1cccnc1)N(C(=O)c1c[nH]cn1)c1ccc(C(C)(C)C)cc1 (stereo not shown) [Compound 31, N-(4-(tert-butyl)phenyl)-N-(2-(tert-butylamino)-2-oxo-1-(pyridin-3-yl)ethyl)-1H-imidazole-4-carboxamide], the “3CLpro inhibition, SAR result in words” value (SARS-CoV 3CLpro) is reported as “nearly equipotent”.

CCC(C)c1ccc(N(C(=O)c2ccco2)C(C(=O)NC2CCCC2)c2cccnc2)cc1 (stereo not shown) [Compound 14] gave an IC50 (SARS-CoV 3CLpro) of less than 10000 nM.

In the case of CC(C)(C)NC(=O)C(c1cccnc1)N(C(=O)c1ccco1)c1ccc(F)cc1 (stereo not shown) [Compound 19, N-(2-(tert-butylamino)-2-oxo-1-(pyridin-3-yl)ethyl)-N-(4-fluorophenyl)furan-2-carboxamide], the “3CLpro inhibition, SAR result in words” value (SARS-CoV 3CLpro) is reported as “deleterious for inhibition”.

With Cc1ccoc1C(=O)N(c1ccc(C(C)(C)C)cc1)C(C(=O)NC(C)(C)C)c1cccnc1 (stereo not shown) [Compound 26] the “3CLpro inhibition, SAR result in words” value (SARS-CoV 3CLpro) was “negatively impacted activity”.

For CC(C)(C)NC(=O)C(c1ccsc1)N(C(=O)c1ccco1)c1ccc(C(C)(C)C)cc1 (stereo not shown) [Compound 20, N-(4-(tert-butyl)phenyl)-N-(2-(tert-butylamino)-2-oxo-1-(thiophen-3-yl)ethyl)furan-2-carboxamide], the “3CLpro inhibition, SAR result in words” value (SARS-CoV 3CLpro) was “complete loss of inhibition activity”.

With CC(C)(C)NC(=O)C(c1ccnnc1)N(C(=O)c1ccco1)c1ccc(C(C)(C)C)cc1 (stereo not shown) [Compound 53] the “3CLpro inhibition, SAR result in words” value (SARS-CoV 3CLpro) was “well tolerated”.

For CC[C@H](NC(=O)[C@@H](NC(=O)OCc1ccccc1)[C@@H](C)OC(C)(C)C)C(=O)N[C@H](C=O)C[C@@H]1CCNC1=O [TG-0205221], the Ki (SARS 3CLpro) is given as 52 nM and the EC50 (SARS-CoV) is given as 600 nM.

In the case of CC(C)(C)NC(=O)[C@@H](c1cccnc1)N(C(=O)c1ccco1)c1ccc(C(C)(C)C)cc1 [16-(R), (R)-N-(4-(tert-butyl)phenyl)-N-(2-(tert-butylamino)-2-oxo-1-(pyridin-3-yl)ethyl)furan-2-carboxamide], the solubility (physchem) is reported as ≤ 95 µg/mL and ≤ 219 µM and the “activity in lead-profiling screen” value [4] is reported as less than 50%.

For CC(C)(C)NC(=O)C(c1cccnc1)N(C(=O)C1CCCO1)c1ccc(C(C)(C)C)cc1 (stereo not shown) [Compound 32], the IC50 (SARS-CoV 3CLpro) was greater than 50000 nM and the “fold loss of 3CLpro activity relative to furan 16” value (SARS-CoV 3CLpro) was greater than 10 fold.

For CC(C)(C)NC(=O)C(c1cccnc1)N(C(=O)Cc1cnc[nH]1)c1ccc(C(C)(C)C)cc1 (stereo not shown) [Compound 51], the “3CLpro inhibition, SAR result in words” value (SARS-CoV 3CLpro) was “deleterious for inhibition”.

For Cc1ccc(C(C(=O)NC(C)(C)C)N(C(=O)c2ccco2)c2ccc(C(C)(C)C)cc2)cn1 (stereo not shown) [Compound 55, N-(4-(tert-butyl)phenyl)-N-(2-(tert-butylamino)-1-(6-methylpyridin-3-yl)-2-oxoethyl)furan-2-carboxamide], the “3CLpro inhibition, SAR result in words” value (SARS-CoV 3CLpro) was “not permitted”.

CC(C)(C)NC(=O)C(c1cccnc1)N(C(=O)c1ccco1)c1ccc(C(C)(C)C)cc1 (stereo not shown) [Compound 16] showed an inhibition at 100 µM (SARS-CoV 3CLpro) greater than 50%.

Work on CC(C)c1ccc(N(C(=O)c2ccco2)C(C(=O)NC(C)(C)C)c2cccnc2)cc1 (stereo not shown) [Compound 17, N-(2-(tert-butylamino)-2-oxo-1-(pyridin-3-yl)ethyl)-N-(4-isopropylphenyl)furan-2-carboxamide] yielded an IC50 (SARS-CoV 3CLpro; read-out: 3CLpro IC50) of less than 50000 nM and an inhibition at 100 µM (SARS-CoV 3CLpro) greater than 50%.

With Cn1cnc(C(=O)N(c2ccc(C(C)(C)C)cc2)C(C(=O)NC(C)(C)C)c2cccnc2)c1 (stereo not shown) [Compound 52, N-(4-(tert-butyl)phenyl)-N-(2-(tert-butylamino)-2-oxo-1-(pyridin-3-yl)ethyl)-1-methyl-1H-imidazole-4-carboxamide] the “fold loss of 3CLpro activity relative to imidazole 31” value (SARS-CoV 3CLpro) was greater than 10 fold.

For CC(C)(C)NC(=O)C(c1ccncc1)N(C(=O)c1ccco1)c1ccc(C(C)(C)C)cc1 (stereo not shown) [Compound 56], the “3CLpro inhibition, SAR result in words” value (SARS-CoV 3CLpro) was “weak inhibitors”.

In the case of CC(C)(C)NC(=O)C(c1cnccn1)N(C(=O)c1ccco1)c1ccc(C(C)(C)C)cc1 (stereo not shown) [Compound 54], the “3CLpro inhibition, SAR result in words” value (SARS-CoV 3CLpro) is reported as “well tolerated”.

In the case of CC(C)(C)NC(=O)C(c1cccnc1)N(C(=O)c1ccco1)C1CC1 (stereo not shown) [Compound 18, N-(2-(tert-butylamino)-2-oxo-1-(pyridin-3-yl)ethyl)-N-cyclopropylfuran-2-carboxamide], the “3CLpro inhibition, SAR result in words” value (SARS-CoV 3CLpro) is reported as “deleterious for inhibition”.

With Cc1ccc(C(=O)N(c2ccc(C(C)(C)C)cc2)C(C(=O)NC(C)(C)C)c2cccnc2)o1 (stereo not shown) [Compound 21] the “3CLpro inhibition, SAR result in words” value (SARS-CoV 3CLpro) was “negatively impacted activity”.

In the case of CC(C)(C)NC(=O)C(c1cccnc1)N(C(=O)c1cccs1)c1ccc(C(C)(C)C)cc1 (stereo not shown) [Compound 27, N-(4-(tert-butyl)phenyl)-N-(2-(tert-butylamino)-2-oxo-1-(pyridin-3-yl)ethyl)thiophene-2-carboxamide], the “3CLpro inhibition, SAR result in words” value (SARS-CoV 3CLpro) is reported as “weakly tolerated” and the “fold loss of 3CLpro activity relative to furan 16” value (SARS-CoV 3CLpro) is reported as 10 fold.
